As a reminder, the cell viability is a read-out of living cells in per cent, often relative to untreated cells.

Data set [1] deals with human foreskin fibroblasts, AH1F cells. Description: Cell viability of fibroblast monolayers in matrix assembly assays (Cell Titer-Glo / AlamarBlue). To be noted: for cell viability: doses ranging from 1 to 20 μM. The class given is cell-based. On the procedure:
Microtiter fibronectin matrix assembly assays: Exogenous plasma fibronectin matrix assembly assay: Binding and incorporation of AlexaFluor® 488-plasma fibronectin (A488-FN) to fibroblast monolayers (human foreskin fibroblasts, AH1F cells was carried out using methods known in the art. Briefly, fibroblasts (60000 per well) were allowed to adhere and spread for 2 hours in microtiter plates in 2% fetal calf serum (FCS)-containing DMEM. Peptides or modulators to be tested were added followed by 28 nM A488-FN. Cell monolayers with or without peptides and A488FN were incubated overnight at 37° C. with 5% CO2. Cell monolayers in microwells were washed with PBS or HBSS containing Ca^2+, Mg^2+. Fluorescence in 96-well plates was read using a microplate reader using bottom-readout capabilities at 485 nm excitation and 525 nm emission with 20 nm bandwidths. To estimate cell viability per well after the washes and measurement of fluorescence, an equal volume of luminescence reagent (Cell Titer-Glo®) was added followed by quantification of luminescence. Fluorescence of wells to which A488FN had not been added, i.e. intrinsic fluorescence of the cell monolayer was subtracted from fluorescence values of wells containing ligand. Data is presented respectively for fibronectin fibrillogenesis or cell viability as percent of fluorescence or luminescence values for wells with no peptides. Microplate microscopy was used to ascertain that fluorescence measurements correspond to fibrillary fibronectin.
Endogenous (cellular) fibronectin assembly assay: This immunochemical assay measures the ECM incorporation of EDA-containing fibronectin synthesized by human fibroblasts and human proximal tubular epithelial cells. Human proximal epithelial cells, HK-2 cells, were obtained from ATCC (CRL-2190). The EDA+ fibronectin is a splice variant synthesized and secreted by a variety of cells mostly during embryonic development and during wound healing, ECM remodeling, or fibrotic conditions in the adult. Fibroblasts (AH1F) were cultured in DMEM (Gibco) containing 10% fetal calf serum, and human proximal tubular epithelial cells (HK-2) were cultured in keratinocyte serum free medium (KSFM, containing pituitary extract and rEGF, Invitrogen/Thermo Fisher). Both media also contained 2.5 mM glutamine, 100 IU/ml penicillin, and 100 μg/ml streptomycin. […] Fluorescence of AlamarBlue® was read at 555 nm excitation and 585 nm emission. […] Similar to the measurement of exogenous A488-FN fluorescence, A488-EDA fluorescence was read using microplate reader equipped with bottom-readout capabilities at 485 nm excitation and 525 nm emission. […]
Background: Cellular ATP, detected with luciferase, serves as a proxy for viable cell number.

For another data set, the system named is UUO kidneys. Description: Unilateral Ureteral Obstruction (UUO) model of kidney fibrosis. Format: in vivo, mouse. To be noted: for decrease in CD45 staining (leukocyte infiltration) / decrease in collagens (picrosirius red birefringence): UUO kidney sections; for decrease of fibronectin deposition (immunohistochemistry): UUO kidneys, s.c. 0.3 mg per day, day 3 to day 9, vs saline; for qualitative H&E histology of UUO kidneys: compared to saline. The source says: Unilateral Ureteral Obstruction model. […] All efforts were made to minimize suffering. […] PEGylated peptide equivalent amounts were based on peptide concentration.
Thus, the right, contralateral, kidney of each mouse was utilized as a control to the left UUO-treated kidney. The data from two cohorts of UUO-treated mice were combined for this study composed of the following groups (n): saline (n=5), PEG (n=4), FUD (n=5), PEG-FUD (n=8) and PEG-mFUD (n=3).
Histology and immunostaining: Paraffin-embedded tissues were sectioned at 4 μm and stained with H&E and Picrosirius Red, and IHC for fibronectin and CD45 for leukocytes. […] Staining for fibronectin was carried out using a rabbit polyclonal antibody to mouse fibronectin (RamFN) which was described in the art. RamFN diluted at 1:5000 required prior proteinase K antigen retrieval and was developed with ImmPRESS Rabbit Ig HRP. Staining for leukocytes was carried out using the pan leukocyte antibody rat anti-mouse CD45 (Leukocyte Common antigen, Ly-5, BD Pharmingen, clone 30-F11) at 1:100 after citrate pH 6.0 antigen retrieval and developed with ImmPRESS rat Ig HRP. RamFN and CD45 staining was counter stained with hematoxylin to demarcate nuclei.
Stained tissue sections were imaged using the 20× objective on an upright brightfield Nikon Eclipse 600 microscope. This microscope was also equipped with polarizer capabilities utilized to assess the birefringence of the picrosirius red-stained collagen fibers. Quantitation of birefringence or DAB product following development of HRP stains was carried out using Image J (Sun Microsystems.Ink) from 6 images from each mouse section obtained at random within the central cortical area and excluding large blood vessels and the kidney capsule.

“Also recorded” adds a separate entry of the source. Where no end group is shown, it is not given here.

“FUD: 49 amino acid FUD peptide, SEQ ID NO: 1, recombinantly expressed, His-tag removed; inhibitor of fibronectin fibrillogenesis (KDQSPLAGESGETEYITEVYGNQQNPVDIDKKLPNETGFSGNMVETEDT; human) [reference compound]” had a cell viability in data set [1] of 80%. Moreover, the “decrease in fibroblast viability” value in data set [1] (highest concentration tested (500 nM)) was “approximately 20%”. In the data set on UUO kidneys, the “decrease in CD45 staining (leukocyte infiltration)” value was “approximately 50%”, the “decrease in collagens (picrosirius red birefringence)” value is recorded as “about 50%”, the “decrease of fibronectin deposition (immunohistochemistry)” value was found to be 40% and the “qualitative H&E histology of UUO kidneys” value is “greater eosinophilic staining”.
In data set [1], “PEG-FUD: PEGylated FUD prepared as in Example 1, PEG size not stated; approximately 27 kDa by mass spectrometry, likely the 20 kDa conjugate (KDQSPLAGESGETEYITEVYGNQQNPVDIDKKLPNETGFSGNMVETEDT; not fully specified (N-terminus); also: PEG size not given here)” had a cell viability of 80%. In addition, the fibroblast viability entry in data set [1] (doses up to 500 nM) is “approximately 100%”. In the data set with UUO kidneys, the “decrease in CD45 staining (leukocyte infiltration)” value is “approximately 50%”; the “decrease in collagens (picrosirius red birefringence)” value is “about 50%”; the “decrease of fibronectin deposition (immunohistochemistry)” value is listed as 70%; the “qualitative H&E histology of UUO kidneys” value was “greater eosinophilic staining; also recorded: clearer tubular preservation and vascularized glomeruli”.

Values taken from patent publication US10828372B2, “Compositions and methods for the inhibition of fibrosis” (WISCONSIN ALUMNI RESEARCH FOUNDATION, priority 2017, dated 2020).
